Patent US6495559B2, “NPY Y5 receptor antagonists” (Merck & Co., Inc., priority 1998, dated 2002)

Legend:
[1] = system: rats; test: Observation of abnormal behavior after oral dosing in rats; format: in vivo; conditions: 100 mg/kg p.o., during 24 hour after dosing
Description: Compound 100 was orally administered 1 hour prior to the ICV-injection of bPP in satiated male Sprague-Dawley rats. […] Thus, Compound 100 has a potent in vivo Y5 antagonistic activity without causing any abnormal behavior.

[2] = system: mice; test: Observation of abnormal behavior after oral dosing in mice; format: in vivo; conditions: 100 mg/kg p.o., during 24 hour after dosing
[3] = system: bPP-induced food intake; test: Bovine pancreatic polypeptide (bPP)-induced food intake in Sprague-Dawley rats; format: in vivo; conditions: 1 hour prior to ICV bPP
Description: Male Sprague-Dawley rats aged 7 weeks (Charles River, Japan) were maintained under the controlled temperature (23±3° C.), humidity (55±15%) and light-dark cycle (7:00-19:00 light on). Rats were housed individually with ad libitum access food (CE-2, Clea Japan) and tap water. Rats were anesthetized with sodium pentobarbital (50 mg/kg, i.p., Dainabot, Japan). A permanent stainless steel guide cannula for intracerebroventricular (ICV) injection (21 gauge, 10 mm long) was stereotaxically implanted into the right lateral ventricle. The stereotaxic coordinates used were as follows: 0.9 mm posterior and 1.2 mm lateral to the bregma and 1.5 mm ventral to the brain surface. Animals were allowed at least 6-day recovery postoperatively before the start of feeding experiment. The day before the experiment, they were handled and underwent mock injection, and nocturnal food intake was measured. Rats which ate more than 15 g during the night before the experiment were used for the following experiment. Test compounds were suspended in 0.5% methylcellulose and orally administered by gavage. Administration of test compounds usually began at 10:00. Dosing volume was 5 ml/kg. […] Two hour post-injection food intake was measured for each rat. […]

## CS(=O)(=O)N1CC2(CCN(C(=O)Nc3cnc(-c4ccccc4)cn3)CC2)c2ccccc21 [Compound 100, 1 -Methanesulfonyl-N-(5-phenyl-2-pyrazinyl)spiro[indoline-3,4′-piperidine]-1′-carboxamide]
[1]
  abnormal behavior: did not cause any abnormal behavior
[2]
  abnormal behavior: did not cause any abnormal behavior
[3]; 1, 3, 10 and 30 mg/kg orally, satiated male rats, two hour post-injection food intake
  bPP-induced food intake: suppressed bPP-induced food intake in a dose-dependent manner
[3]; oral, suppression of bPP-induced food intake
  minimum effective dose: 3 mg/kg

## CS(=O)(=O)N1CC2(CCN(C(=O)Nc3cnc(-c4cccc(F)c4)cn3)CC2)c2ccccc21 [Compound 101, N-[5-(3-fluorophenyl)-2-pyrazinyl]-1-methylsulfonylspiro[indoline-3,4′-piperidine]-1′-carboxamide]
other
  melting point: 203 to 205 °C

## CS(=O)(=O)N1CC2(CCN(C(=O)Nc3cc4cc(Cl)ccc4[nH]3)CC2)c2ccccc21 [Compound 135, N-(5-chlorobenzoazol-2-yl)-1-methylsulfonylspiro[indoline-3,4′-piperidine]-1′-carboxamide]
other
  melting point: 172 to 176 °C

## CS(=O)(=O)N1CC2(CCN(C(=O)Nc3ccc(-c4nccs4)cc3)CC2)c2ccccc21 [Compound 111, 1-methylsulfonyl-N-[4-(2-thiazolyl)phenyl]spiro[indoline-3,4′-piperidine]-1′-carboxamide]
other
  melting point: 143.2 to 147.4 °C

## CS(=O)(=O)N1CC2(CCN(C(=O)Nc3cc(-c4ccccc4)no3)CC2)c2ccccc21
other
  melting point: 235 to 237 °C

## CCS(=O)(=O)N1CC2(CCN(C(=O)Nc3cnc(-c4nncs4)cn3)CC2)c2ccc(F)cc21 [Compound 154, 1-ethylsulfonyl-6-fluoro-N-[5-(1,3,4-thiadiazol-2-yl)-2-pyrazinyl]spiro[indoline-3,4′-piperidine]-1′-carboxamide]
other
  melting point: 228 to 230 °C

## CCS(=O)(=O)N1CC2(CCN(C(=O)Nc3cn(-c4cccc(F)c4)cn3)CC2)c2ccccc21 [Compound 203, 1-ethylsulfonyl-N-[1-(3-fluorophenyl)imidazol-4-yl]spiro[indoline-3,4′-piperidine]-1′-carboxamide]
other
  melting point: 200 to 202 °C

## CS(=O)(=O)N1CC2(CCN(C(=O)Nc3ccc(C(=O)c4ccccc4)cc3)CC2)c2ccccc21.Cl
other
  melting point: 222 to 225 °C

## CS(=O)(=O)N1CC2(CCN(C(=O)Nc3cnc(-c4ncns4)cn3)CC2)c2ccccc21 [Compound 147, 1-methylsulfonyl-N-[5-(1,2,4-thiadiazol-5-yl)-2-pyrazinyl]spiro[indoline-3,4′-piperidine]-1′-carboxamide]
other
  melting point: 234 to 238 °C

## CS(=O)(=O)N1CC2(CCN(C(=O)Nc3ccc(-c4ccccc4)cn3)CC2)c2ccccc21 [Compound 112, 1-methylsulfonyl-N-(5-phenyl-2-pyridyl)spiro[indoline-3,4′-piperidine]-1′-carboxamide]
other
  melting point: 214 °C

## CCc1nc(-c2ccc(NC(=O)N3CCC4(CC3)CN(S(C)(=O)=O)c3ccccc34)cc2)cs1 [Compound 107, N-[4-(2-ethyl-4-thiazolyl)phenyl]-1-methylsulfonylspiro[indoline-3,4′-piperidine]-1′-carboxamide]
other
  melting point: 242 to 242.5 °C

## CS(=O)(=O)N1CC2(CCN(C(=O)Nc3ccc(N4CCCC4)nc3)CC2)c2ccccc21 [Compound 116, 1-methylsulfonyl-N-[2-(1-pyrrolidinyl)-5-pyridyl]spiro[indoline-3,4′-piperidine]-1′-carboxamide]
other
  melting point: 252 to 254 °C

## COc1cccc2oc(NC(=O)N3CCC4(CC3)CN(S(C)(=O)=O)c3ccccc34)nc12 [Compound 128, N-(4-methoxybenzoxazol-2-yl)-1-methylsulfonylspiro[indoline-3,4′-piperidine]-1′-carboxamide]
other
  melting point: 195 to 199 °C

## COc1ccccc1-c1cnc(NC(=O)N2CCC3(CC2)CN(S(C)(=O)=O)c2ccccc23)cn1 [Compound 102, N-[5-(2-methoxyphenyl)-2-pyrazinyl]-1-methylsulfonylspiro[indoline-3,4′-piperidine]-1′-carboxamide]
other
  melting point: 186 to 188 °C

## CCS(=O)(=O)N1CC2(CCN(C(=O)Nc3cnc(-c4nncs4)cn3)CC2)c2cc(F)ccc21 [Compound 155, 1-ethylsulfonyl-5-fluoro-N-[5-(1,3,4-thiadiazol-2-yl)-2-pyrazinyl]spiro[indoline-3,4′-piperidine]-1′-carboxamide]
other
  melting point: 223 to 224 °C
